Data: patent US9315458B2, “Nitrogen-containing heterocyclic compound” (Takeda Pharmaceutical Company Limited, priority 2014, dated 2016)

Biological target: T1, human M1 receptor (hCHRM1) (Homo sapiens, UniProt P11229)
T1 construct: expressed in transfected cells
T1 sequence (P11229 1-460): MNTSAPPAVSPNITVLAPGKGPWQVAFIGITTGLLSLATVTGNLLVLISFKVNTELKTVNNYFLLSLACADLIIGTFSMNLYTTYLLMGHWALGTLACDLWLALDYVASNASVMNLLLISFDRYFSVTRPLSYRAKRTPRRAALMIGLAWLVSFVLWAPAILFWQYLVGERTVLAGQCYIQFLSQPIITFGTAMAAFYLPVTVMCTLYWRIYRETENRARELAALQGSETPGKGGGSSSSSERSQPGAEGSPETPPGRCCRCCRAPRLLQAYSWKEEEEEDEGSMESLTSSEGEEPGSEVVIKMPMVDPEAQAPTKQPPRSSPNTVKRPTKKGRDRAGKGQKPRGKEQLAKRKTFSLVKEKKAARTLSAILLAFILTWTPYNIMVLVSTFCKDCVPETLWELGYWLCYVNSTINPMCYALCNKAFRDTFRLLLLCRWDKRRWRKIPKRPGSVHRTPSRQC
Assay: Measurement of M1 receptor positive allosteric modulator (M1PAM) activity, calcium fluorescence (FLIPRtetra) with acetylcholine at EC20
Type: cell-based
Conditions: for activity (%) at 10 μM: 10 μM test compound, 100% = acetylcholine 1 μM, 0% = DMSO, acetylcholine at EC20; for EC50: inflection point of concentration-dependent curve, CHO-K1 cells expressing hCHRM1, acetylcholine at EC20 (final 0.6-0.8 nM), read-out: IP value
Experimental: The activity of a test compound in the presence of acetylcholine at EC20 concentration (final concentration 0.6-0.8 nM), which affords an action corresponding to about 20% of the maximum activity, was measured as PAM activity. The method is as follows. CHO-K1 cells stably expressing a human M1 receptor (hCHRM1) were plated on a 384-well black clear bottom plate (BD Falcon) at 5,000 cells/well, and cultured in an incubator at 37° C., 5% CO2 for 1 day. The medium in the cell plate was removed, and assay buffer A (Recording medium (DOJINDO LABORATORIES), 0.1% BSA (Wako Pure Chemical Industries, Ltd.), 2.5 μg/mL Fluo-4 AM (DOJINDO LABORATORIES), 0.08% Pluronic F127 (DOJINDO LABORATORIES), 1.25 mM probenecid (DOJINDO LABORATORIES)) containing a calcium indicator was added at 30 μL/well. The cells were left standing in the incubator at 37° C., 5% CO2 for 30 min, and further left standing at room temperature for 30 min. A test compound prepared by diluting with assay buffer B (HBSS (Invitrogen), 20 mM HEPES (Invitrogen), 0.1% BSA) containing 2.4-3.2 nM acetylcholine was added at 10 μL/well, and the fluorescence was measured by FLIPRtetra (Molecular Devices) for 1 min every 1 second. With the definition that the amount of change in the fluorescence on addition of acetylcholine (final concentration 1 μM) is 100% and that on addition of DMSO instead of a test compound is 0%, the activity (%) of the test compound was calculated, and the inflection point in the concentration-dependent curve of the test compound was calculated as IP values.

Row | Compound | activity (%) at 10 μM [%] | EC50 [nM]
1 | Cc1c(Cc2ccc(-n3cccn3)cc2)cc2c(c1C)CN(CC(C)(C)O)C2=O [Example 15, 2-(2-hydroxy-2-methylpropyl)-4,5-dimethyl-6-(4-(1H-pyrazol-1-yl)benzyl)isoindolin-1-one] | 103 | 11
2 | O=C1c2cc(Cc3ccc(-n4cccn4)cc3)c(Cl)cc2CN1[C@H]1CCCC[C@@H]1O (racemic) [Example 2, rac-5-chloro-2-(trans-2-hydroxycyclohexyl)-6-(4-(1H-pyrazol-1-yl)benzyl)isoindolin-1-one] | 109 | 86
3 | Cc1c(Cc2ccc(-c3ccn(C)n3)cc2)cc2c(c1C)CN([C@H]1CCC[C@@H]1O)C2=O (racemic) [Example 83, rac-2-(trans-2-hydroxycyclopentyl)-4,5-dimethyl-6-(4-(1-methyl-1H-pyrazol-3-yl)benzyl)isoindolin-1-one] | 92 | 13
4 | Cc1cc2c(cc1Cc1ccc(-c3cn(C)nc3C)nc1)C(=O)N([C@H]1CCC[C@@H]1O)C2 (racemic) [Example 40, rac-6-((6-(1,3-dimethyl-1H-pyrazol-4-yl)pyridin-3-yl)methyl)-2-(trans-2-hydroxycyclopentyl)-5-methylisoindolin-1-one] | 97 | 37
5 | Cc1c(Cc2ccc(C#N)cc2F)cc2c(c1C)CN([C@H]1COCC[C@@H]1O)C2=O [Example 124, 3-fluoro-4-({2-[(3S,4S)-4-hydroxytetrahydro-2H-pyran-3-yl]-6,7-dimethyl-3-oxo-2,3-dihydro-1H-isoindol-5-yl}methyl)benzonitrile] | 86 | 16
6 | COc1ccc(Cc2cc3c(c(F)c2OC)CN([C@H]2CCCC[C@@H]2O)C3=O)cc1 [Example 161, 4-fluoro-2-((1S,2S)-2-hydroxycyclohexyl)-5-methoxy-6-(4-methoxybenzyl)isoindol-1-one] | 94 | 32
7 | COc1ccc(Cc2cc3c(c(C)c2C)CN([C@H]2COCC[C@@H]2O)C3=O)cc1C [Example 160, 2-[(3S,4S)-4-hydroxytetrahydro-2H-pyran-3-yl]-6-(4-methoxy-3-methylbenzyl)-4,5-dimethyl-2,3-dihydro-1H-isoindol-1-one] | 112 | 47
8 | Cc1c(Cc2ccc(C#N)c(F)c2)cc2c(c1C)CN([C@H]1COCC[C@@H]1O)C2=O [Example 26, 1,5-anhydro-2-(6-(4-cyano-3-fluorobenzyl)-4,5-dimethyl-1-oxo-1,3-dihydro-2H-isoindol-2-yl)-2,4-dideoxy-L-threo-pentitol] | 99 | 9.2
9 | Cn1cc(-c2ccc(Cc3cc4c(cc3C3CC3)CN(CC3CCCO3)C4=O)cc2)nn1 (stereo not drawn) [Example 61, 5-cyclopropyl-6-(4-(1-methyl-1H-1,2,3-triazol-4-yl)benzyl)-2-(tetrahydrofuran-2-ylmethyl)isoindolin-1-one] | 97 | 35
10 | Cc1cc2c(cc1Cc1ccc(-c3cn(C)nc3C)cc1)C(=O)N([C@H]1CCC[C@@H]1O)C2 (racemic) [Example 55, rac-6-(4-(1,3-dimethyl-1H-pyrazol-4-yl)benzyl)-2-(trans-2-hydroxycyclopentyl)-5-methylisoindolin-1-one] | 101 | 98
11 | Cc1cc2c(cc1Cc1ccc(-c3cnn(C)c3)cc1)C(=O)N(CC1CCCO1)C2 (stereo not drawn) [Example 68, 5-methyl-6-(4-(1-methyl-1H-pyrazol-4-yl)benzyl)-2-(tetrahydrofuran-2-ylmethyl)isoindolin-1-one] | 95 | 96
12 | Cc1cc(-c2ccc(Cc3cc4c(cc3C)CN([C@H]3CCC[C@@H]3O)C4=O)cc2)ccn1 (racemic) [Example 100, rac-2-(trans-2-hydroxycyclopentyl)-5-methyl-6-(4-(2-methylpyridin-4-yl)benzyl)isoindolin-1-one] | 101 | 94
13 | CCc1cc2c(cc1Cc1ccc(-c3ccn(C)n3)cc1)C(=O)N([C@H]1CCC[C@@H]1O)C2 (racemic) [Example 63, rac-5-ethyl-2-(trans-2-hydroxycyclopentyl)-6-(4-(1-methyl-1H-pyrazol-3-yl)benzyl)isoindolin-1-one] | 99 | 45
14 | Cc1c(C#N)c(Cc2ccc(-n3cccn3)cc2)cc2c1CN([C@H]1CCCC[C@@H]1O)C2=O (racemic) [Example 11, rac-2-(trans-2-hydroxycyclohexyl)-4-methyl-1-oxo-6-(4-(1H-pyrazol-1-yl)benzyl)isoindoline-5-carbonitrile] | 105 | 13
15 | Cc1c(Cc2ccc(-n3cccn3)cc2)cc2c(c1C)CN(c1ncc(Cl)cc1F)C2=O [Example 162, 2-(5-chloro-3-fluoropyridin-2-yl)-4,5-dimethyl-6-(4-(1H-pyrazol-1-yl)benzyl)isoindolin-1-one] | 95 | 66
16 | Cc1cc2c(cc1Cc1ccc(-n3cccn3)cc1)C(=O)N([C@H]1COCC[C@@H]1O)C2 [Example 21, 1,5-anhydro-2,4-dideoxy-2-(5-methyl-1-oxo-6-(4-(1H-pyrazol-1-yl)benzyl)-1,3-dihydro-2H-isoindol-2-yl)-L-threo-pentitol] | 106 | 6.2
17 | Cc1cc2c(cc1Cc1ccc(-c3ccn(C)n3)nc1)C(=O)N([C@H]1CCC[C@@H]1O)C2 (racemic) [Example 43, rac-2-(trans-2-hydroxycyclopentyl)-5-methyl-6-((6-(1-methyl-1H-pyrazol-3-yl)pyridin-3-yl)methyl)isoindolin-1-one] | 110 | 98
18 | Cc1cc2c(cc1Cc1ccc(-c3cn(C)nc3C)nc1)C(=O)N([C@H]1CCCC[C@@H]1O)C2 (racemic) [Example 5, rac-6-((6-(1,3-dimethyl-1H-pyrazol-4-yl)pyridin-3-yl)methyl)-2-(trans-2-hydroxycyclohexyl)-5-methylisoindolin-1-one] | 102 | 8.2
19 | CCc1cc2c(cc1Cc1ccc(-n3cccn3)cc1)C(=O)N([C@H]1CCC[C@@H]1O)C2 (racemic) [Example 59, rac-5-ethyl-2-(trans-2-hydroxycyclopentyl)-6-(4-(1H-pyrazol-1-yl)benzyl)isoindolin-1-one] | 100 | 34
20 | Cc1nn(C)cc1-c1ccc(Cc2cc3c(c(C)c2C)CN([C@H]2CCCC[C@@H]2O)C3=O)c(F)c1 (racemic) [Example 94, rac-6-(4-(1,3-dimethyl-1H-pyrazol-4-yl)-2-fluorobenzyl)-2-(trans-2-hydroxycyclohexyl)-4,5-dimethylisoindolin-1-one] | 92 | 9.5
21 | Cc1c(Cc2ccc(-c3cn(C)nn3)cc2F)cc2c(c1C)CN(CC1CCCO1)C2=O (stereo not drawn) [Example 103, 6-(2-fluoro-4-(1-methyl-1H-1,2,3-triazol-4-yl)benzyl)-4,5-dimethyl-2-(tetrahydrofuran-2-ylmethyl)isoindolin-1-one] | 94 | 6
22 | Cc1cc(-c2ccc(Cc3cc4c(cc3C)CN([C@H]3CCCC[C@@H]3O)C4=O)cc2)ccn1 (racemic) [Example 99, rac-2-(trans-2-hydroxycyclohexyl)-5-methyl-6-(4-(2-methylpyridin-4-yl)benzyl)isoindolin-1-one] | 103 | 16
23 | Cc1c(Cc2ccc(-c3ccn(C)n3)cc2F)cc2c(c1C)CN([C@H]1CCC[C@@H]1O)C2=O (racemic) [Example 71, rac-6-(2-fluoro-4-(1-methyl-1H-pyrazol-3-yl)benzyl)-2-(trans-2-hydroxycyclopentyl)-4,5-dimethylisoindolin-1-one] | 100 | 56
24 | COc1c(Cc2ccc(-n3cccn3)cc2)cc2c(c1Cl)CN([C@H]1CCC[C@@H]1O)C2=O (racemic) [Example 92, rac-4-chloro-2-(trans-2-hydroxycyclopentyl)-5-methoxy-6-(4-(1H-pyrazol-1-yl)benzyl)isoindolin-1-one] | 91 | 60
